Experimental data published in patent publication US12083115B2, “Methods for treating neurological symptoms associated with lysosomal storage diseases” (Genzyme Corporation, priority 2020, dated 2024).

Experiments:
[1] = tested on: GM3 expression in C32 human melanoma cells; assay: GM3 fluorescent-linked immunosorbent assay (FLISA), C32; format: cell-based; conditions: 48 hours
From the text: Inhibition of glucosylceramide synthase activity can be measured with one or more assays. A first assay is a microsomal assay that directly measures the conversion of ceramide to glucosylceramide by HPLC. Microsomes are a source of glucosylceramide synthase activity in the microsomal assay. A second assay is a cell based, phenotypic assay that monitors cell surface expression of the downstream lipid GM3 by antibody mediated immunofluorescence. Specific protocols are provided below.
This is a phenotypic assay that measures GM3 expression in B16 mouse melanoma or C32 human melanoma cells following treatment with test compounds. Cell surface GM3 expression is determined by antibody mediated fluorescence.
Compounds are diluted in media and plated in 384 well plates in DMSO. B16 and C32 cells are assayed at densities of 20,000 cells/ml and 62,500 cells/ml, respectively, per well. Each titration curve contains 10 points that are assayed in duplicate on each test run. The plates are incubated for 48 hours at 37° C., 5% CO2, and are then washed once with TBS. Anti-GM3 antibody is added to each well and the plates are then incubated for an additional one hour at room temperature. Plates are subsequently washed twice and incubated for an additional hour with the labeled secondary antibody. Following the final incubation, the plates are washed twice and the fluorescence at λex=D640/20 nm and λem=657 nm is detected on a fluorescent reader.
The results of the microsomal assays are expressed as “GCS IC50,” which represents the concentration of the compound causing 50% inhibition of glucosylceramide synthase activity. The results of the cell-based assays are expressed as “GM3 B16 IC50” or “GM3 C32 IC50” for the B16 assay and the C32 assay, respectively. These values represent the concentration of the compound causing 50% inhibition of GM3 expression on the cell surface.

[2] = tested on: adult patients with Gaucher disease Type 3; assay: Clinical study in GD-3 patients: trail making test (TMT), Trail B minus Trail A time; format: in vivo, human; conditions: for TMT-A (s)-TMT-B (s), Average: screening 126 (n = 6)
Method: During the study patients were evaluated for safety and tolerability, CSF and plasma biomarkers (glucosylceramide, GL-1; glucosylsphingosine, lyso-GL1), pharmacokinetics, markers for systemic disease (spleen and liver volume measured by magnetic resonance imaging (MRI), platelet count, hemoglobin levels), indicia of interstitial lung disease (high resolution pulmonary computed tomography (CT)), and horizontal saccadic eye movement. In addition, exploratory biomarkers were quantified in CSF of GD3 patients: ceramide (the precursor of GL-1), chitotriosidase (CHITO), GM3, and GPNMB. Symptoms of ataxia were measured using the SARA scale, neurological symptoms were measured using the trail making test, and functional MRI was used to assess neural connectivity in the brain.
The trail making test (TMT) was used to evaluate cognitive function in the patients. The TMT is one of the most widely used neuropsychological tests and is included in most test batteries. The TMT is a diagnostic tool to assess general intelligence and cognitive dysfunctions (Tombaugh et al. [2004]; Cavaco et al. [2013]). In part A of the TMT (TMT-A), subjects are asked to connect a cluster of numbers in ascending order (Trail A). This task is a combination of visual search and general visual and motor processing speed. Part B (TMT-B) presents a sequence which alternates between numbers and letters (Trail B). Subjects must actively switch between both categories when connecting them in ascending, but alternating order.
TMT-A evaluates mainly perceptual and psychomotor speed. TMT-B assesses more specifically mental flexibility and shifting abilities. TMT-B minus TMT-A score is used to remove the variance attributable to the graphomotor and visual scanning components of TMT-A. This derived score reflects the unique task requirements of TMT-B.

[3] = tested on: plasma GL-1 (glucosylceramide); assay: Study 2: plasma GL-1 pharmacodynamics; format: in vivo, human
Method: (§1) The study enrolled and randomized 36 healthy adults (19 men and 17 women) (n=9 each to group).
(§2) Pharmacodynamic endpoints (plasma GL-1, GL-3, and GM3 concentrations) were assessed on Days 1-5, 8, 11, 13, and 14, at 0 hours […]; and on Day 15, at 24 hours after the Day 14 dose.

[4] = tested on: plasma GL-3 (globotriaosylceramide); assay: Study 2: plasma GL-3 pharmacodynamics; format: in vivo, human
Method: as §1, §2

CC(C)(NC(=O)O[C@@H]1CN2CCC1CC2)c1csc(-c2ccc(F)cc2)n1 [Compound 2, (S)-quinuclidin-3-yl 2-(2-(4-fluorophenyl)thiazol-4-yl)propan-2-ylcarbamate]
IC50 [1]: 9.6 µM
patients with positive correlation between reduction of CSF GL-1 and TMT time ([2]; 52 weeks, 11 patients): 6 of 11
Trail B minus Trail A time ([2]; Patient 1, Week 26, screening 13, 15 mg/day + imiglucerase): 21 s
Trail B minus Trail A time ([2]; Patient 1, Week 52, screening 13, 15 mg/day + imiglucerase): 16 s
TMT-A (s)-TMT-B (s), Change (%) from Baseline to Week 52 ([2]; Patient 1, 15 mg/day + imiglucerase): +23%
Trail B minus Trail A time ([2]; Patient 2, Week 26, screening 71, 15 mg/day + imiglucerase): 37 s
Trail B minus Trail A time ([2]; Patient 2, Week 52, screening 71, 15 mg/day + imiglucerase): 57 s
TMT-A (s)-TMT-B (s), Change (%) from Baseline to Week 52 ([2]; Patient 2, 15 mg/day + imiglucerase): −20%
Trail B minus Trail A time ([2]; Patient 3, Week 26, screening 72, 15 mg/day + imiglucerase): 56 s
Trail B minus Trail A time ([2]; Patient 3, Week 52, screening 72, 15 mg/day + imiglucerase): 20 s
TMT-A (s)-TMT-B (s), Change (%) from Baseline to Week 52 ([2]; Patient 3, 15 mg/day + imiglucerase): −72%
Trail B minus Trail A time ([2]; Patient 4, Week 52, screening 116, 15 mg/day + imiglucerase): 66 s
TMT-A (s)-TMT-B (s), Change (%) from Baseline to Week 52 ([2]; Patient 4, 15 mg/day + imiglucerase): −43%
TMT-A (s)-TMT-B (s), Change (%) from Baseline to Week 52 ([2]; Patient 5 (low Compound 2 exposure)): −3%
Trail B minus Trail A time ([2]; Patient 5 (low Compound 2 exposure), Week 26, screening 74): 60 s
Trail B minus Trail A time ([2]; Patient 5 (low Compound 2 exposure), Week 52, screening 74): 72 s
Trail B minus Trail A time ([2]; Patient 6, Week 26, screening 410, 15 mg/day + imiglucerase): 440 s
Trail B minus Trail A time ([2]; Patient 6, Week 52, screening 410, 15 mg/day + imiglucerase): 166 s
TMT-A (s)-TMT-B (s), Change (%) from Baseline to Week 52 ([2]; Patient 6, 15 mg/day + imiglucerase): −60%
Trail B minus Trail A time ([2]; Patient 7, Week 26, screening 86, 15 mg/day + imiglucerase): 83 s
Trail B minus Trail A time ([2]; Patient 7, Week 52, screening 86, 15 mg/day + imiglucerase): 110 s
TMT-A (s)-TMT-B (s), Change (%) from Baseline to Week 52 ([2]; Patient 7, 15 mg/day + imiglucerase): +28%
Trail B minus Trail A time ([2]; Patient 8, Week 26, screening 100, 15 mg/day + imiglucerase): 54 s
Trail B minus Trail A time ([2]; Patient 8, Week 52, screening 100, 15 mg/day + imiglucerase): 59 s
TMT-A (s)-TMT-B (s), Change (%) from Baseline to Week 52 ([2]; Patient 8, 15 mg/day + imiglucerase): −41%
Trail B minus Trail A time ([2]; Patient 9, Week 52, screening 59, 15 mg/day + imiglucerase): 75 s
TMT-A (s)-TMT-B (s), Change (%) from Baseline to Week 52 ([2]; Patient 9, 15 mg/day + imiglucerase): +27%
Trail B minus Trail A time ([2]; Patient 10, Week 26, screening 73, 15 mg/day + imiglucerase): 33 s
Trail B minus Trail A time ([2]; Patient 10, Week 52, screening 73, 15 mg/day + imiglucerase): 6 s
TMT-A (s)-TMT-B (s), Change (%) from Baseline to Week 52 ([2]; Patient 10, 15 mg/day + imiglucerase): −92%
Trail B minus Trail A time ([2]; Patient 11, Week 26, screening 18, 15 mg/day + imiglucerase): 48 s
Trail B minus Trail A time ([2]; Patient 11, Week 52, screening 18, 15 mg/day + imiglucerase): 32 s
TMT-A (s)-TMT-B (s), Change (%) from Baseline to Week 52 ([2]; Patient 11, 15 mg/day + imiglucerase): +78%
TMT-A (s)-TMT-B (s), Average Change (%) from Baseline to Week 52 ([2]; Patients 1-6): −29%
TMT-A (s)-TMT-B (s), Average ([2]; Week 26, n = 5): 123 (n = 5) s
patients exhibiting a TMT-A reduction ([2]; Week 52, Excluding Patient 5): four of five
patients exhibiting a TMT-B reduction ([2]; Week 52, Excluding Patient 5): five of five
patients exhibiting an improvement in Trail B minus Trial A ([2]; Week 52, Excluding Patient 5): four of five
mean improvement in Trail B minus Trial A ([2]; Week 52, Excluding Patient 5 (SD 37.6%)): −31.6%
mean improvement in Trail B minus Trial A ([2]; Week 52, Excluding Patient 5 (SD 99.3 s)): -71.4 s
patients exhibiting a reduction in the (TMT-B−TMT-A) time ([2]; Week 52, N = 6): 5 of 6
patients with reduction in time taken to complete Trail A ([2]; Week 52, N = 6): Four of six
patients with reduction in time taken to complete Trail B ([2]; Week 52, N = 6): six of six
mean time taken to complete Trail A ([2]; Week 52, N = 6 (SD=55.2 s), baseline 67.8 s): 56.5 s
mean time taken to complete Trail B ([2]; Week 52, N = 6 (SD=91.8 s), baseline 193.8 s): 122.7 s
TMT-A (s)-TMT-B (s), Average ([2]; Week 52, n = 6): 66 (n = 6) s
drop in the (TMT-B−TMT-A) time ([2]; one of the new patients, 52 weeks): 92%
Mean estimated plasma GL-1 reduction from baseline attributable to Compound 2 Ctrough ([3]; 5 mg dose group, Ctrough 19.0 ng/mL, 90% CI 54.4-79.7%): 67.0%
Mean estimated plasma GL-1 reduction from baseline attributable to Compound 2 Ctrough ([3]; 10 mg dose group, Ctrough 47.5 ng/mL, 90% CI 63.7-85.2%): 74.4%
Mean estimated plasma GL-1 reduction from baseline attributable to Compound 2 Ctrough ([3]; 20 mg dose group, Ctrough 69.9 ng/mL, 90% CI 64.8-87.8%): 76.3%
day of maximal sustained effects on GL-1 ([3]; 5- and 10-mg groups): 11 days
day of maximal sustained effects on GL-1 ([3]; 20-mg group): ≤ 8 days
Mean calculated GL-1 reduction from baseline ([3]; Day 15, 5-mg group): 41.9%
subjects with GL-1 values below LLOQ ([3]; Day 15, 5-mg group (n=9)): 3 subjects
Mean calculated GL-1 reduction from baseline ([3]; Day 15, 10-mg group): 69.6%
subjects with GL-1 values below LLOQ ([3]; Day 15, 10-mg group (n=9)): 5 subjects
Mean calculated GL-1 reduction from baseline ([3]; Day 15, 20-mg group): 74.6%
subjects with GL-1 values below LLOQ ([3]; Day 15, 20-mg group (n=9)): 9 subjects
subjects with GL-3 values below LLOQ ([4]; Day 15, 5-mg dose group (3 at baseline)): 9 subjects
subjects with GL-3 values below LLOQ ([4]; Day 15, 10-mg dose group (1 at baseline)): 7 subjects
subjects with GL-3 values below LLOQ ([4]; Day 15, 20-mg dose group (6 at baseline)): 9 subjects
Plasma GL-3 over time ([4]; all Compound 2 dose groups, low baseline values relative to LLOQ): decreased with time
